ChEMBL document CHEMBL1126421, “Total synthesis of myo-inositol-1-phosphate-4,5-pyrophosphate, a novel second messenger analogue, via myo-inositol-1-phosphate-4,5-bisphosphorothioate” (Bioorg Med Chem Lett, 1992)

Biological target: T1, Inositol polyphosphate-5-phosphatase A (Homo sapiens, UniProt Q14642)
T1 sequence (Q14642 whole entry): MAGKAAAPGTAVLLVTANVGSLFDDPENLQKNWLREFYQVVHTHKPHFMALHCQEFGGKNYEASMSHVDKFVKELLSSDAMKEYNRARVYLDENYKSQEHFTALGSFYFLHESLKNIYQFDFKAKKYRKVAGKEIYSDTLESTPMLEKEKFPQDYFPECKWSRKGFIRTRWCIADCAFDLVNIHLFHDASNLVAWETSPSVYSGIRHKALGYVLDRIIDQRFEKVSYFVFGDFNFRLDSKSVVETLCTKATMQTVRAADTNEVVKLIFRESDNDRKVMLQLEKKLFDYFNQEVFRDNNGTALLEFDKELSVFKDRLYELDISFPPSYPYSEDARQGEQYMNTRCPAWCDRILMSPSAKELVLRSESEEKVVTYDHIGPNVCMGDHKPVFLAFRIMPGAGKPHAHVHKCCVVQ
Assay: The compound was evaluated for inhibition of Inositol-1,4,5-trisphosphate 5-phosphatase

**Q.** `O=P(O)(O)OC1C(O)C(O)C(OP(O)(O)=S)C(OP(O)(O)=S)C1O` (stereo unspecified) was tested. Which Ki did it give?
**A.** 1300 nM
